These results are taken from patent publication US5166214A, “Use of imidazoles for the treatment of atherosclerosis” (priority 1990, dated 1992).

Like-named read-outs stand apart in the source and are kept apart here.

For assay [1], the target named is T1, Acyl-CoA: Cholesterol Acyltransferase (ACAT) (Rattus norvegicus, UniProt Q7TQM4).
T1 construct: Microsomes were obtained by differential centrifugation; from tissue; host or cells: liver microsomes of male Sprague Dawley rats
T1 sequence (Q7TQM4 1-524): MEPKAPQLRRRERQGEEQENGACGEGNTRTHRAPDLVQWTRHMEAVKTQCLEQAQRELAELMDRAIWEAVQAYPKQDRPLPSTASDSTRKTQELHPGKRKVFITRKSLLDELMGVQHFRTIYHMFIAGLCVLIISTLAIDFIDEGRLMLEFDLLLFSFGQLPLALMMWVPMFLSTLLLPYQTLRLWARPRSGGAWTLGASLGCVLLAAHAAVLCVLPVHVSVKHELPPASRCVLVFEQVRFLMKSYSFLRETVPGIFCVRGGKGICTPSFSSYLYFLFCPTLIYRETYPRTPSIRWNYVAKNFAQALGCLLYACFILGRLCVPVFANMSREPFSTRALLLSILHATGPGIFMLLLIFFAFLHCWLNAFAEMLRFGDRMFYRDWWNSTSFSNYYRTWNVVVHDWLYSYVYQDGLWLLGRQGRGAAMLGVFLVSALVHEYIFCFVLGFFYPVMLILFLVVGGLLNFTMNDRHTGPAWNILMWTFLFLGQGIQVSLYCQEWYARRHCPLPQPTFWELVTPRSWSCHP
Nature of the assay: Inhibition of acyl-CoA: cholesterol acyltransferase (ACAT) in hepatic microsomes (in vitro). It is filed as biochemical, rat (male Sprague Dawley). To be noted: 75 μM 14C-oleoyl-CoA, pH 7.4, 37° C. On the procedure: A. Assay of the Inhibition of Acyl-CoA: Cholesterol Acyltransferase (ACAT) in Hepatic Microsomes
The ability of the compounds to inhibit ACAT, the enzyme responsible for the intracellular synthesis of cholesteryl esters, was tested as follows. Male Sprague Dawley rats weighing 150-300 g, were fed rat chow ad libitum. The animals were fasted for twenty-four hours prior to being sacrificed by decapitation. The livers were perfused in situ with 50 ml of cold 0.25M sucrose, excised, and homogenized in three volumes of 0.1M phosphate buffer, pH 7.4, that contained 0.5 mM EDTA (ethylenediaminetetraacetic acid), 1.0 mM glutathione, 0.25M sucrose and […]. Microsomes were obtained by differential centrifugation; the supernatant from an initial spin at 15,000×g for 15 minutes was centrifuged at 105,000×g for 1 hour to pellet the microsomes. The microsomes were suspended in homogenization buffer, reisolated by centrifugation, and stored at -70° C. Microsomes were used within one month of preparation.
The control assay in a final volume of 200 μl consisted of 200 μg of microsomal protein, 75 μM ^14 C-oleoyl-CoA (10,000 dpm/nmol) in 0.1M phosphate, pH 7.4, that contained 1 mM glutathione. Compounds were added in 5 μl of DMSO (dimethyl sulfoxide) and additional controls were run with DMSO only. All components, except the oleoyl-CoA, were preincubated for 15 min. at 37° C. prior to the initiation of the reaction by the addition of oleoyl-CoA. The assay was terminated after 10 min by the addition of 4 ml of chloroform:methanol (2:1, v/v). 20,000 dpm of ^3 H-cholesteryl oleate and 10 μg of unlabeled cholesteryl oleate and oleic acid were added as an internal standard and carriers, respectively. After allowing 10 min. for lipid extraction, the samples were centrifuged at 1,000×g for 10 min. to separate the solvent layers. The chloroform layer containing the neutral lipids was spotted onto a Baker SI250-Pa silica gel TLC plate and the plate developed using a hexane: diethyl ether: acetic acid (170:30:1 v/v/v) mobile phase. The lipids were visualized by their interaction with iodine vapor and the cholesteryl ester spot was scraped into a scintillation vial and counted.

The test system of assay [2] is murine macrophage-like cell line J774.A1. Nature of the assay: Inhibition of cholesterol esterification in mammalian cells (macrophage assay). It is filed as cell-based. To be noted: J774.A1 macrophages loaded with ac-LDL, 14C-oleic acid; read-out: Cholesterol Esterification IC50. The method in brief: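 Murine J774.A1 macrophages at 37 °C received 34 μg acetylated human LDL in 10% FBS-DMEM from 24 h, compound in DMSO at 41 h, then a 0.1 mM 14C-oleic acid–BSA pulse from 43 to 45 h. Labelled cholesteryl ester was separated by TLC, counted and normalised to Lowry protein.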

[3] abbreviates: rat hepatic microsomes, read-out: In Vitro ACAT IC50.

The IC50 is the concentration that inhibits the measured activity by half. Consider `CCCCCCCN(CCCCCSc1nc(-c2ccc(N(C)C)cc2)c(-c2ccc(N(C)C)cc2)[nH]1)C(=O)NC(C)C` [Example 205, N-[5-[4,5-bis[4-(dimethylamino)phenyl]-1H-imidazol-2-ylthio]pentyl]-N-heptyl-N'-(1-methylethyl)urea], for which the 50% inhibitory concentration (IC50) in assay [1] (setting [3]) was 74 nM; in assay [2] it was 3 nM.
Regarding `CCCCCCCCNC(=O)N(CCCCCSc1nc(-c2ccccc2)c(-c2ccccc2)[nH]1)c1ccccc1` [Example 207, N-[5-(4,5-diphenyl-1H-imidazol-2-ylthio)pentyl]-N'-octyl-N-phenylurea], the values for the IC50 in assay [1] (setting [3]) and in assay [2] were 9 nM and 600 nM, respectively.
On to `CCCCCCCN(CCCCCSc1nc(-c2ccc(O)cc2)c(-c2ccc(O)cc2)[nH]1)C(=O)Nc1ccc(F)cc1F` [Example 209, N-[5-[4,5-bis(4-hydroxyphenyl)-1H-imidazol-2-ylthio]pentyl]-N'-(2,4-difluorophenyl)-N-heptylurea], for which the IC50 was 1400 nM in assay [1] (setting [3]) and 4800 nM in assay [2].
For the compound `CCCCCCCN(CCCCCSc1nc(C(C)C)c(C(C)C)[nH]1)C(=O)NC(C)C` [Example 210], the IC50 amounted to 17 nM in assay [1] (setting [3]) and 800 nM in assay [2].
For the compound `CCCCCCCN(CCCCCSc1nc2c([nH]1)-c1ccccc1OCOc1ccccc1-2)C(=O)Nc1ccc(F)cc1F` [Example 211, N-[5-(1H,9H-dibenz[4,5:8,9][1,3]dioxonino[6,7-d]imidazol-2-ylthio)-pentyl]-N'-(2,4-difluorophenyl)-N-heptylurea], the 50% inhibitory concentration (IC50) in assay [1] (setting [3]) worked out at 32 nM; in assay [2], 700 nM.
In the case of `CCCCCCCN(CCCCCSc1nc2c([nH]1)-c1ccccc1Oc1ccccc1-2)C(=O)Nc1ccc(F)cc1F` [Example 212, N-[5-(1H-dibenz[2,3:6,7]oxedino[4,5-d]imidazol-2-ylthio)pentyl]-N'-(2,4-difluorophenyl)-N-heptylurea], the IC50 in assay [1] (setting [3]) came to 60 nM; in assay [2], 1700 nM.
On the same counts, the results for `CCCCCCCN(CCCCCSc1nc(-c2ccc(C(F)(F)F)cc2)c(-c2ccc(C(F)(F)F)cc2)[nH]1)C(=O)Nc1ccc(F)cc1F` [Example 258] are 40000 nM and 25000 nM.
As for `CCCCCCCN(CCCCCSc1nc(-c2ccccc2)c(-c2ccccc2)[nH]1)C(=S)NCCC` [Example 299, N-[5-(4,5-diphenyl-1H-imidazol-2-ylthio)pentyl]-N-heptyl-N'-propylthiourea], the IC50 was determined as 140 nM in assay [1] (setting [3]) and 1200 nM in assay [2].
Consider `CCCCCCCN(CCCCCSc1nc(-c2ccccc2)c(-c2ccccc2)[nH]1)C(=S)Nc1cccc(F)c1` [Example 300, N-[5-(4,5-diphenyl-1H-imidazol-2-ylthio)pentyl]-N'-(3-fluorophenyl)-N-heptylthiourea], for which the IC50 in assay [1] (setting [3]) was 130 nM; in assay [2], 900 nM.
As to `CCCCCCCN(CCCCCSc1nc(-c2ccccc2)c(-c2ccccc2)[nH]1)C(=O)CCC` [Example 341, N-[5-(4,5-diphenyl-1H-imidazol-2-ylthio)pentyl]-N-heptylbutanamide], the IC50 in assay [1] (setting [3]) amounted to 3 nM; in assay [2], 100 nM.
Regarding `CCCCCCCN(CCCCCSc1nc(-c2ccccc2)c(-c2ccccc2)[nH]1)C(=O)CCCC` [Example 342, N-[5-(4,5-diphenyl-1H-imidazol-2-ylthio)pentyl]-N-heptylpentanamide], the half-maximal inhibitory concentration (IC50) in assay [1] (setting [3]) is 30 nM; in assay [2], 1600 nM.
For `CCCCCCCN(CCCCCSc1nc(C(C)C)c(C(C)C)[nH]1)C(=O)CC1CCCCC1` [Example 347, N-[5-[4,5-bis(1-methylethyl)-1H-imidazol-2-ylthio]pentyl]-N-heptylcyclohexaneacetamide], the IC50 came out at 30 nM in assay [1] (setting [3]) and 300 nM in assay [2].
In the case of `CCCCCCCN(CCCCCSc1nc(-c2ccc(OC)cc2)c(-c2ccc(OC)cc2)[nH]1)C(=O)CCC` [Example 348, N-[5-[4,5-bis(4-methoxyphenyl)-1H-imidazol-2-ylthio]pentyl]-N-heptylbutanamide], the IC50 in assay [1] (setting [3]) amounted to 700 nM; in assay [2] it was 200 nM.
On the same counts, the results for `CCCCCCCN(CCCCCSc1nc(-c2ccc(OC)cc2)c(-c2ccc(OC)cc2)[nH]1)C(=O)Cc1ccc(Cl)c(Cl)c1` [Example 349] are 200 nM and 90 nM.
As for `CCCCCCCN(CCCCCSc1nc(-c2ccc(OC)cc2)c(-c2ccc(OC)cc2)[nH]1)C(=O)Cc1c(F)c(F)c(F)c(F)c1F` [Example 350], the values for the IC50 in assay [1] (setting [3]) and in assay [2] were 605 nM and 50 nM, respectively.
Take `CCCCCCCN(CCCCCSc1nc(-c2ccc(OC)cc2)c(-c2ccc(OC)cc2)[nH]1)C(=O)Cc1ccc(F)cc1F` [Example 351, N-[5-[4,5-bis(4-methoxyphenyl)-1H-imidazol-2-ylthio]pentyl]-2,4-difluoro-N-heptylbenzeneacetamide]: the values for the half-inhibitory concentration (IC50) in assay [1] (setting [3]) and in assay [2] were 250 nM and 40 nM, respectively.
Taken in the same sequence, the figures for `CCCCCCCN(CCCC)CCCCCSc1nc(-c2ccccc2)c(-c2ccccc2)[nH]1` [Example 352] were 300 nM and 2200 nM.
On the same counts, the results for `CCCCCCCN(CCCCCSc1nc(-c2ccc(OC)cc2)c(-c2ccc(OC)cc2)[nH]1)CCc1ccc(F)cc1F` [Example 353, N-[5-[4,5-bis(4-methoxyphenyl)-1H-imidazol-2-ylthio]pentyl]-2,4-difluoro-N-heptylbenzeneethaneamine] are 240 nM and 80 nM.
On the same counts, the results for `CCCCCCCN(CCCCCSc1nc(-c2ccc(N(C)C)cc2)c(-c2ccc(N(C)C)cc2)[nH]1)C(=O)CC1CCCCC1` [Example 354] are 50 nM and 20 nM.
Consider `CCCCCCCN(CCCCCSc1nc(-c2ccc(OC)cc2)c(-c2ccc(OC)cc2)[nH]1)C(=O)CC1CCCCC1` [Example 355, N-[5-[4,5-bis(4-methoxyphenyl)-1H-imidazol-2-ylthio]pentyl]-N-heptylcyclohexaneacetamide], for which the results for the concentration for half-maximal inhibition (IC50) in assay [1] (setting [3]) and in assay [2] were 10 nM and 30 nM, respectively.
Take `CCCCCCCN(CCCCCSc1nc(-c2ccccc2)c(-c2ccccc2)[nH]1)C(=O)OCC(C)C` [Example 403, (2-Methylpropyl) [5-(4,5-diphenyl-1H-imidazol-2-ylthio)pentyl]heptylcarbamate]: the figures for the half-inhibitory concentration (IC50) in assay [1] (setting [3]) and in assay [2] were 35 nM and 500 nM, respectively.
On the same counts, the results for `CCCCCCCN(CCCCCSc1nc(-c2ccccc2)c(-c2ccccc2)[nH]1)C(=O)OCC` [Example 404, Ethyl [5-(4,5-diphenyl-1H-imidazol-2-ylthio)pentyl]heptylcarbamate] are 33 nM and 500 nM.
Take `CCCCCCCCOC(=O)N(CCCCCCC)CCCCCSc1nc(-c2ccccc2)c(-c2ccccc2)[nH]1` [Example 405, Octyl [5-(4,5-diphenyl-1H-imidazol-2-ylthio)pentyl]heptylcarbamate]: the figures for the half-maximal inhibitory concentration (IC50) in assay [1] (setting [3]) and in assay [2] were 500 nM and 3900 nM, respectively.
Turning to `CCCCCCCN(CCCCCSc1nc(-c2ccccc2)c(-c2ccccc2)[nH]1)C(=O)Oc1ccc(F)cc1` [Example 406, (4-fluorophenyl)[5-(4,5-diphenyl-1H-imidazol-2-ylthio)pentyl]heptylcarbamate], the IC50 in assay [1] (In Vitro ACAT IC50, rat hepatic microsomes) came out at 10 nM; in assay [2], 600 nM.
Regarding `CCCCCCCN(CCCCCSc1nc(-c2ccccc2)c(-c2ccccc2)[nH]1)C(=O)OCCC` [Example 407, Propyl [5-(4,5-diphenyl-1H-imidazol-2-ylthio)pentyl]heptylcarbamate], the IC50 in assay [1] (setting [3]) was found to be 40 nM; in assay [2], 800 nM.
